From ChEMBL document CHEMBL4725259 (Bioorg Med Chem, 2020)
Active and inactive are the calls of the source. The calls are words filed in the database; no cut-off is given here.

Experiments:
Vasopressin V2 receptor = Vasopressin V2 receptor (Homo sapiens, UniProt P30518); experiment: Antagonist activity at human AVPR2 at 20 uM by PathHunter beta-arrestin assay relative to control; conditions: filed as antagonist
[1] = target: T1, CX3C chemokine receptor 1 (Homo sapiens) (UniProt P49238); experiment: Antagonist activity at human CX3CR1 expressed in CHO-K1 cells at 20 uM by PathHunter beta-arrestin assay relative to control; assay type: cell-based; conditions: filed as antagonist
T1 sequence (whole entry): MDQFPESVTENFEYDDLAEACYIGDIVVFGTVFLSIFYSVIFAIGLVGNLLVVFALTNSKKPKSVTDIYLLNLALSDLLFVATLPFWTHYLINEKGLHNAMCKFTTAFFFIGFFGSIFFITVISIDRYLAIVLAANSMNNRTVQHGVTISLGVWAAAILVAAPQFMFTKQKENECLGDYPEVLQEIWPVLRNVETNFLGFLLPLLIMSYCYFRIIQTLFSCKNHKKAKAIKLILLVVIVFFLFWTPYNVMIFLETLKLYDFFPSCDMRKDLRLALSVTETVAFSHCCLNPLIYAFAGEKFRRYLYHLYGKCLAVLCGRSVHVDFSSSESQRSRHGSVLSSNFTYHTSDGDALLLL

[2] = target: T2, C-X-C chemokine receptor type 4 (Homo sapiens, UniProt P61073); experiment: Antagonist activity at human CXCR4 expressed in mouse C2C12 cells at 20 uM by PathHunter beta-arrestin assay relative to control; assay type: cell-based; conditions: filed as antagonist
[3] = target: T3, Oxytocin receptor (Homo sapiens) (UniProt P30559); experiment: Antagonist activity at human OXTR expressed in CHO-K1 cells at 20 uM by PathHunter beta-arrestin assay relative to control; assay type: cell-based; conditions: filed as antagonist
T3 sequence (whole entry): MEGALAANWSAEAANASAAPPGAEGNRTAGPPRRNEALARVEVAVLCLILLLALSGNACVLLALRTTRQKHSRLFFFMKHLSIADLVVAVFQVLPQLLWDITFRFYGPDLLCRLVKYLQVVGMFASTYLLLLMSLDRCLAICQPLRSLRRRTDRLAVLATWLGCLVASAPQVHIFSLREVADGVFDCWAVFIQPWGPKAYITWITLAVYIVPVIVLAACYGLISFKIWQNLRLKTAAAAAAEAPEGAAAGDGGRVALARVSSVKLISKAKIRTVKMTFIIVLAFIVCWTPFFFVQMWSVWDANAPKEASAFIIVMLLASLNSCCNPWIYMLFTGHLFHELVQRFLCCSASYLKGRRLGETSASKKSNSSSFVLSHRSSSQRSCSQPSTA

[4] = target: T4, Prolactin-releasing peptide receptor (Homo sapiens) (UniProt P49683); experiment: Antagonist activity at human PRLHR expressed in CHO-K1 cells at 20 uM by PathHunter beta-arrestin assay relative to control; assay type: cell-based; conditions: filed as antagonist
T4 sequence (whole entry): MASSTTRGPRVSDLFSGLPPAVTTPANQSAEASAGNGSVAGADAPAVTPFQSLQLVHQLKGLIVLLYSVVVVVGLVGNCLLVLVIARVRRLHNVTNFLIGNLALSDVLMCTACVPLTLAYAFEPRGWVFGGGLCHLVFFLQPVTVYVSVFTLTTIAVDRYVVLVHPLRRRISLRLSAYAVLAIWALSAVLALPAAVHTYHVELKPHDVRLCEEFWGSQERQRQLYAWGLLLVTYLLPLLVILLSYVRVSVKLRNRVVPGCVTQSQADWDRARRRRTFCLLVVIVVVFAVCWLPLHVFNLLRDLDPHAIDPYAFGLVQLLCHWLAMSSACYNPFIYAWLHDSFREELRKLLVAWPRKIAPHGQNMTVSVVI

[5] = target: T5, C-C chemokine receptor type 3 (Homo sapiens) (UniProt P51677); experiment: Agonist activity at human CCR3 expressed in CHO-K1 cells at 20 uM by PathHunter beta-arrestin assay relative to control; assay type: cell-based
T5 sequence (whole entry): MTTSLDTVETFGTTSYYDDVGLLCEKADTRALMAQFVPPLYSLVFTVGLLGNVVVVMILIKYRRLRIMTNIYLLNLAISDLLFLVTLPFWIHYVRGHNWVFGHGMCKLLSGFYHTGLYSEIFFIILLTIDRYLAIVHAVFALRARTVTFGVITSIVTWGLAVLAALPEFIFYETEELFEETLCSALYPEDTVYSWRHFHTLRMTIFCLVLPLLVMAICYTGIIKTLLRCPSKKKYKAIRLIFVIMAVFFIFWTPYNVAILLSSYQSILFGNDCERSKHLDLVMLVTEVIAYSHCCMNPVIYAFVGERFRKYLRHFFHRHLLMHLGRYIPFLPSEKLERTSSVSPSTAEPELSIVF

[6] = target: C-C chemokine receptor type 8 (Homo sapiens, UniProt P51685); experiment: Agonist activity at human CCR8 expressed in CHO-K1 cells at 20 uM by PathHunter beta-arrestin assay relative to control; assay type: cell-based
[7] = target: T1, CX3C chemokine receptor 1 (Homo sapiens); experiment: Agonist activity at human CX3CR1 expressed in CHO-K1 cells at 20 uM by PathHunter beta-arrestin assay relative to control; assay type: cell-based
[8] = target: T2, C-X-C chemokine receptor type 4; experiment: Agonist activity at human CXCR4 expressed in mouse C2C12 cells at 20 uM by PathHunter beta-arrestin assay relative to control; assay type: cell-based
[9] = target: D(2) dopamine receptor (Homo sapiens) (UniProt P14416); experiment: Agonist activity at human DRD2L expressed in CHO-K1 cells at 20 uM by PathHunter beta-arrestin assay relative to control; assay type: cell-based
[10] = target: T6, Follicle-stimulating hormone receptor (Homo sapiens) (UniProt P23945); experiment: Agonist activity at human FSHR expressed in CHO-K1 cells at 20 uM by PathHunter beta-arrestin assay relative to control; assay type: cell-based
T6 sequence (whole entry): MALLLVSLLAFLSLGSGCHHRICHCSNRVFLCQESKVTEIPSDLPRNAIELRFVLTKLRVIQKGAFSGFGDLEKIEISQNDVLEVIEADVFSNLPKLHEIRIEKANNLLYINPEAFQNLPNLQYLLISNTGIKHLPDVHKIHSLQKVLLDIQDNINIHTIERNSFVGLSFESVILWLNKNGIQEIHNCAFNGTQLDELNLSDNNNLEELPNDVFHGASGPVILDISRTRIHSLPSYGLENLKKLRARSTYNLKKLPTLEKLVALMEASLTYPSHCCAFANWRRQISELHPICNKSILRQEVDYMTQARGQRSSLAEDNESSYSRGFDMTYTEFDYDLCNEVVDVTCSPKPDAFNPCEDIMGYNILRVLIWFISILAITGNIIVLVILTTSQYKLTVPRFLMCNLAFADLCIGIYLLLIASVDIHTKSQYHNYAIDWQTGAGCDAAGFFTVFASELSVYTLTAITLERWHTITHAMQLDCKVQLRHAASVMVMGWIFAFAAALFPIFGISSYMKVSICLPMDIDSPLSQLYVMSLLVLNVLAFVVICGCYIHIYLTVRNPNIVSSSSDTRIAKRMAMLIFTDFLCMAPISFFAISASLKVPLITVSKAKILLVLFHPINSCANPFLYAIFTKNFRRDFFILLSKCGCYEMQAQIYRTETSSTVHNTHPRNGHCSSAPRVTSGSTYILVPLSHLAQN

[11] = target: T3, Oxytocin receptor (Homo sapiens); experiment: Agonist activity at human OXTR expressed in CHO-K1 cells at 20 uM by PathHunter beta-arrestin assay relative to control; assay type: cell-based

T2 sequence (P61073 whole entry): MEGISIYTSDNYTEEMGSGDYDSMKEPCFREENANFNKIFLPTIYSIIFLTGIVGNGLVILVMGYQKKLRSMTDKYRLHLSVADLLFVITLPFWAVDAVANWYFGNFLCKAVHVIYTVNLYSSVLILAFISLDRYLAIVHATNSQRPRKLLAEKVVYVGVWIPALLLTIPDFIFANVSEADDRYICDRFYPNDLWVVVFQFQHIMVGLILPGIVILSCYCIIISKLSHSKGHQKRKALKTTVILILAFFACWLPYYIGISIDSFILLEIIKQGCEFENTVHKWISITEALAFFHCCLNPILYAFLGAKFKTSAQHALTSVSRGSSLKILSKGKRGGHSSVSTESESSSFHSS
Vasopressin V2 receptor, sequence (P30518 whole entry): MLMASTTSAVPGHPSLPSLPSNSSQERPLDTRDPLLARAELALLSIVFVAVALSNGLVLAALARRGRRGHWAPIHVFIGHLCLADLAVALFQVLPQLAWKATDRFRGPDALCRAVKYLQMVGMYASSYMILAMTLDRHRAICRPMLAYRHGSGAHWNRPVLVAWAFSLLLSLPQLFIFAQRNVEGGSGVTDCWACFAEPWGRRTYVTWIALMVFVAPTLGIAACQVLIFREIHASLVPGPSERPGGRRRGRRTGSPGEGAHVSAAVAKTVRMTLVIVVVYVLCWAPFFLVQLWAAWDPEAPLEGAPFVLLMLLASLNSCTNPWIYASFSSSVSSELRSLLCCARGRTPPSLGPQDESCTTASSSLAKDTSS
C-C chemokine receptor type 8, sequence (P51685 whole entry): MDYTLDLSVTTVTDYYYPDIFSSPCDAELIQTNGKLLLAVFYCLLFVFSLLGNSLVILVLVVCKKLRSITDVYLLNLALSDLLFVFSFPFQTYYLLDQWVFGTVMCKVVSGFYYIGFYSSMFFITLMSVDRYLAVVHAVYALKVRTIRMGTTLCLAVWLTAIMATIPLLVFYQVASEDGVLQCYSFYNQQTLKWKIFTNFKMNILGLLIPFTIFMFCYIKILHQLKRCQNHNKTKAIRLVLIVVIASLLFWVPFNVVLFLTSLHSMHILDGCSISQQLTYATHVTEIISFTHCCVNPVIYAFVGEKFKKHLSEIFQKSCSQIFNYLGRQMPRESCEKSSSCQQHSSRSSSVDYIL
D(2) dopamine receptor (Homo sapiens), sequence (P14416 whole entry): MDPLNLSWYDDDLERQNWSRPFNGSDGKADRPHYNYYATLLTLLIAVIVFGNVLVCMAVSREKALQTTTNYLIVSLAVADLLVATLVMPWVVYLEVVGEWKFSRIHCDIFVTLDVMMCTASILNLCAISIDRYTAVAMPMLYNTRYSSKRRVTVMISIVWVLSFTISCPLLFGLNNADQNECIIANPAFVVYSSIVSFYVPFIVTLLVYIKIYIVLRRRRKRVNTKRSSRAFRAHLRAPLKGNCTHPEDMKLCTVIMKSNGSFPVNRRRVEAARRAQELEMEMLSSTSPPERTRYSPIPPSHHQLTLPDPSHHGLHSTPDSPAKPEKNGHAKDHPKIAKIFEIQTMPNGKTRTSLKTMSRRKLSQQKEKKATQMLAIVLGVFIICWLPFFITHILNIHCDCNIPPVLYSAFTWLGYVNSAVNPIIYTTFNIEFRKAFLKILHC

Row | Compound | inhibition (Vasopressin V2 receptor) [%] | inhibition [1] [%] | inhibition [2] [%] | inhibition [3] [%] | inhibition [4] [%] | Activity [5] | Activity [6] | Activity [7] | Activity [8] | Activity [9] | Activity [10] | Activity [11]
1 | COC(=O)[C@@H]1[C@H]2C[C@@H]3N(CC[C@@]34C(=O)N(Cc3cccc(OC)c3)c3ccccc34)C[C@@H]2CC[C@@H]1OCc1cccc(OC)c1 | 83 | 72 | 39 | 97 | 63 | inactive | inactive | inactive | inactive | inactive | inactive | inactive
2 | COC(=O)[C@@H]1[C@H]2C[C@@H](c3[nH]c4ccccc4c3CCn3cc(-c4cccc(Cl)c4)nn3)N(C#N)C[C@@H]2CC[C@@H]1O | 7 | 92 | 125 | 9 | 19 | inactive | inactive | inactive | inactive | inactive | inactive | inactive
